Patent publication US11339448B2, “Treatment of acute myeloid leukemia” (Ottawa Hospital Research Institute, priority 2018, dated 2022)

Columns and labels:
Format in all cases: cell-based, human
[1] = system: MTF2 deficient refractory AML cells [MD-AML]; test: Cell viability / apoptosis assay (Annexin V/7-AAD) in primary AML patient cells; details: for apoptosis: MD-AML cells, in combination with Cytarabine or Daunorubicin; for sensitivity to Cytarabine / sensitivity to Daunorubicin: MD-AML, comparable to B-AML; for sensitivity to Cytarabine: combination with Cytarabine; for sensitivity to Daunorubicin: combination with Daunorubicin; for apoptosis / apoptotic effect, MDM2 inhibitor alone: treatment alone, over the course of 48 hours; for viability of CD34+CD38− cells from MD-AML patients: 0.5 μM Daunorubicin or 1 μM Cytarabine, over 48 hours
Description: Lin^−CD34^+ primary AML bone marrow cells were maintained in IMDM media containing SCF (100 ng/mL), FLT3 (50 ng/mL), IL-3 (20 ng/mL), G-CSF (20 ng/mL) and 10^−4M Beta-mercaptoethanol^21. Growth factors were purchased from Peprotech. On Day 1 of infection, cells were incubated with polybrene (6 mg/ml) for 2 hours at 37° C., then combined with viral supernatants containing either a GFP-tagged MTF2 overexpression vector clone or an empty vector control at a MOI of 30.
(§1) Apoptosis was assessed in sorted cells by the dual staining of AnnexinV and 7-AAD (eBiosciences). Flow cytometric analyses of treated samples were performed consistently, using the same gating strategy throughout. Viable cells were categorized as being AnnexinV and 7-AAD negative, late apoptotic/dead cells were categorized as being AnnexinV and 7-AAD positive.
(§2) Lin^−CD34^+ cells isolated from either umbilical cord blood or primary AML patient bone marrow aspirates were transduced as above, sorted for GFP^+ and cultured in 96-well plates at 100,000 cells/100 uL/well in duplicates. The drugs Daunorubicin, Cytarabine, Nutlin3a and M1773 were dissolved in DMSO. Cytarabine and Daunorubicin were added at concentrations of 1 μM and 0.5 μM, respectively. After 1 hour of incubation with Daunorubicin, cells were collected and transferred into fresh media to remove Daunorubicin from the media. The MDM2 pathway inhibitors, Nutlin3a and M1773 were added at concentrations of 1 μM.

[2] = system: Lin−CD34+ HSPCs; test: Alkaline comet assay (DNA damage accumulation, Olive moment); details: for DNA damage accumulation: MTF2-deficient HSPCs, in combination with Cytarabine or Daunorubicin; for DNA damage accumulation (Olive moment): scramble vs MTF2 shRNA transduced HSPCs, over a 48-hour period
Description: Alkaline comet assays were performed using GelBond Films and buffers were prepared as described^22. Slides were stained with SYBR Gold and imaged using Zeiss Axio2 Imaging inverted microscope equipped with a 5× Plan-NEOFLUAR 0.3NA objective and an AxioCam MRm camera through a FITC-compatible filter. At least 10 random fields containing a minimum of 20 non-overlapping comets in each group total were photographed. Blinded imaging acquisition and analysis was performed using ImageJ software (NIH) and the OpenComet comet assay plugin calculating Olive moment (arbitrary units) on the basis of comet head and tail sizes (measured in pixels) and their integral intensity. The magnitude of these parameters depends on time of electrophoresis, staining brightness and image magnification, which were constant within each assay and between experiments. Comet assays were independently repeated using HSPCs isolated from 3 different UCB samples. Statistical significance was determined by two-way ANOVA using GraphPad Prism software version 6.
as §2

[3] = system: Lin−CD34+ HSPCs; test: Cell viability / apoptosis assay (Annexin V/7-AAD) in shRNA-transduced HSPCs; details: for sensitivity to induction therapy drugs (cell viability): MTF2-deficient HSPCs, in combination with Cytarabine or Daunorubicin
Description: HSPCs (Lin^−CD34^+) were maintained in IMDM media containing bovine serum albumin, insulin, and transferrin (Stem Cell Technologies), 1% PenStrep (ThermoFisher), SCF (100 ng/mL), TPO (50 ng/mL), FLT3 (100 ng/mL), 1% Glutamax (InVitrogen), and LDL (1 μg/ml) (Calbiochem). Growth factors were purchased from Peprotech. On Day 1 of infection, cells were incubated with polybrene (Sigma) (6 mg/ml) for 2 hours at 37° C., then combined with viral supernatants containing either a GFP-tagged MTF2 shRNA clone or a scrambled shRNA control (ThermoFisher) at a MOI of 100. Cells were centrifuged at 400 g for 20 minutes, then maintained at 37° C. On Day 2, the infection was repeated. Cells were grown for 3 days using a fed-batch culture system^21, then sorted for high GFP-expression and viability by negative selection of Propidium Iodide using the Beckman Coulter MoFlo sorter.
as §1, §2

[4] = system: MTF2 shRNA knockdown (SH3 or SH7) HSPCs; test: Cell cycle (DRAQ5) and PCNA proliferation analysis in HSPCs; details: for overall PCNA levels (proliferation): MTF2 deficient (SH3 or SH7) HSPCs, 1 μM, 24 hours post-treatment; for population distribution within the cell cycle stages: scramble or MTF2 knockdown HSPCs, 1 μM for 24 hours; for fraction of viable MTF2-deficient cells that were PCNA+: MTF2-deficient HSPCs, 48 hours post-treatment
Description: (§3) Cells were sorted using cell surface markers, then fixed in 4% PFA, permeabilized with 0.3% Triton and stained for MTF2 (Genway, clone M96), EZH2 (Millipore, clone AC22), SUZ12 (Millipore, clone 2AO9), H3K27me3 (Cell Signaling, clone C36B11), PCNA (Santa Cruz, clone C10), p53 (Cell Signaling, clone 1C12), or MDM2 (Santa Cruz, clone C18) and appropriate secondary antibodies. Protein expression was determined by flow cytometry compared with an isotype-only control and ran on the LSRFortessa™ Cell Analyzer (BD Biosciences). Data analysis was performed using FlowJo v10.2 to compare mean fluorescent intensity values.
(§4) For cell cycle analysis, cells were fixed and stained with DRAQ5 (BD Biosciences) to assess cell cycle state. For assessing p53 signaling and MTF2 rescue experiments, cells were stained with antibodies against p53, MDM2 or H3K27me3 as above and with DRAQ5 for nucleic acid detection. Cells were analyzed using the ImageStream imaging flow cytometer (Amnis). The nuclear contents of each protein were determined using the preset wizard tool “Nuclear Localization”, within the Amnis IDEAS analysis software.
as §2

[5] = system: MDM2 and p53 levels; test: Imaging flow cytometry of MDM2 and p53 levels in MTF2 knockdown HSPCs; details: for MDM2 and p53 levels within the nucleus: MTF2 knockdown (SH3) HSPCs, 1 μM
Description: as §3, §4, §2

[6] = system: p53 levels in Lin−CD34+ leukemic cells (MD-AML); test: Imaging flow cytometry of p53 levels in refractory patient leukemic cells; details: Lin−CD34+ leukemic cells from refractory patient BM aspirates (MD-AML)
Description: as §3, §4
Lin^−CD34^+ cells isolated from either umbilical cord blood or primary AML patient bone marrow aspirates were transduced as above, sorted for GFP^+ and cultured in 96-well plates at 100,000 cells/100 uL/well in duplicates. […]

[7] = MTF2 knockdown (SH7) HSPCs, 1 uM

`CC(C)(C)C[C@H]1N[C@@H](C(=O)NC2CCC(O)CC2)[C@H](c2cccc(Cl)c2F)[C@@]12C(=O)Nc1cc(Cl)ccc12` (stereo partly drawn) [MI-773, (2′R,3S,3′S,5′R)-6-chloro-3′-(3-chloro-2-fluorophenyl)-5′-(2,2-dimethylpropyl)-N-(4-hydroxycyclohexyl)-2-oxospiro[1H-indole-3,4′-pyrrolidine]-2′-carboxamide] was tested, and the apoptosis [1] was “underwent apoptosis”, the “sensitivity to Cytarabine” value ([1]; 48 hours) was “increased sensitivity” and the “sensitivity to Cytarabine” value ([1]; within 24 hours) was “increased sensitivity”. The “sensitivity to Daunorubicin” value ([1]; 48 hours) was “increased sensitivity”, the “sensitivity to Daunorubicin” value ([1]; within 24 hours) was “increased sensitivity” and the “apoptosis / apoptotic effect, MDM2 inhibitor alone” value [1] was “very low apoptotic effect”. The DNA damage accumulation [2] was “same amount of DNA damage accumulation as that found within scramble controls”, the “sensitivity to induction therapy drugs (cell viability)” value [3] was “sensitized to induction therapy drugs” and the “overall PCNA levels (proliferation)” value [4] was “decrease in overall PCNA levels”. The “population distribution within the cell cycle stages” value [4] was “arresting in G0/G1”, the p53 levels ([5]; MTF2-deficient HSPCs) was “rescued” and the “MDM2 and p53 levels within the nucleus” value [5] was “reestablished MDM2 and p53 levels to those observed in the scramble untreated control”. The MDM2 levels [5, 7] was “low”, the p53 levels [5, 7] was “restored” and the p53 levels [6] was “rescued”.

In the case of `COc1cccc2c1C(=O)c1c(O)c3c(c(O)c1C2=O)C[C@@](O)(C(C)=O)C[C@@H]3O[C@H]1C[C@H](N)[C@H](O)[C@H](C)O1` [Daunorubicin], the “viability of CD34+CD38− cells from MD-AML patients” value [1] is reported as “remain viable over 48 hours”, the “DNA damage accumulation (Olive moment)” value [2] is reported as “highest levels of DNA damage were found in the scramble control HSPCs” and the “fraction of viable MTF2-deficient cells that were PCNA+” value [4] is reported as “two-thirds”.

For `Nc1ccn([C@@H]2O[C@H](CO)[C@@H](O)[C@@H]2O)c(=O)n1` [Cytarabine], the “viability of CD34+CD38− cells from MD-AML patients” value [1] was “remain viable over 48 hours”, the “DNA damage accumulation (Olive moment)” value [2] was “highest levels of DNA damage were found in the scramble control HSPCs” and the viability at 1 µM ([3]; Homo sapiens, MTF2 shRNA knockdown HSPCs, 48 hours after treatment (Daunorubicin 0.5 μM or Cytarabine 1 μM), read-out: MTF2-deficient cells viable) was > 60%. For the same compound, the “fraction of viable MTF2-deficient cells that were PCNA+” value [4] was “two-thirds”.

`COc1ccc(C2=N[C@@H](c3ccc(Cl)cc3)[C@@H](c3ccc(Cl)cc3)N2C(=O)N2CCNC(=O)C2)c(OC(C)C)c1` [Nutlin3A, 4-[(4S,5R)-4,5-bis(4-chlorophenyl)-2-(4-methoxy-2-propan-2-yloxyphenyl)-4,5-dihydroimidazole-1-carbonyl]piperazin-2-one] was tested, and the apoptosis [1] was “underwent apoptosis”, the “sensitivity to Cytarabine” value ([1]; 48 hours) was “increased sensitivity” and the “sensitivity to Cytarabine” value ([1]; within 24 hours) was “increased sensitivity”. For the same compound, the “sensitivity to Daunorubicin” value ([1]; 48 hours) was “increased sensitivity”, the “sensitivity to Daunorubicin” value ([1]; within 24 hours) was “increased sensitivity” and the “apoptosis / apoptotic effect, MDM2 inhibitor alone” value ([1]; listed as Nutlin3a) was “very low apoptotic effect”. The DNA damage accumulation [2] was “same amount of DNA damage accumulation as that found within scramble controls”, the “sensitivity to induction therapy drugs (cell viability)” value [3] was “sensitized to induction therapy drugs” and the “overall PCNA levels (proliferation)” value [4] was “decrease in overall PCNA levels”. The “population distribution within the cell cycle stages” value [4] was “arresting in G0/G1”, the p53 levels ([5]; MTF2-deficient HSPCs) was “rescued” and the “MDM2 and p53 levels within the nucleus” value [5] was “reestablished MDM2 and p53 levels to those observed in the scramble untreated control”. The MDM2 levels [5, 7] was “low”, the p53 levels [5, 7] was “restored” and the p53 levels [6] was “rescued”.
